The text below walks through data of ChEMBL document CHEMBL1151427, “Intrinsic novobiocin resistance in Staphylococcus saprophyticus” (2007).

One may read the MIC as the lowest concentration found to suppress growth. High values mean a need for much substance, low ones inhibition by little substance.

Converted amounts (≈) assume the structure as drawn.

What all share (format): functional
Assay [1] deals with Staphylococcus aureus. The assay is described as follows: Antimicrobial activity against Staphylococcus aureus SH1000 after 24 hrs by agar dilution method. The following applies: SH1000, 24 h. For orientation: In agar dilution the substance is mixed into plates at graded concentrations.
The nature of assay [2]: Ratio of MIC for Staphylococcus aureus RN4220 harboring tetracycline-regulable expression vector pAJ96 expressing Staphylococcus saprophyticus GyrB gene to MIC for Staphylococcus aureus RN4220.
Assay [3] deals with Staphylococcus aureus. The assay is described as follows: Antimicrobial activity against Staphylococcus aureus RN4220 harboring tetracycline-regulable expression vector pAJ96 after 24 hrs by agar dilution method. The following applies: RN4220, 24 h.
Assay [4] relates to Staphylococcus saprophyticus. The assay is described as follows: Antimicrobial activity against Staphylococcus saprophyticus ATCC 15305 after 24 hrs by agar dilution method. Conditions: ATCC 15305, 24 h.
The subject of assay [5] is Staphylococcus aureus. The assay is described as follows: Antimicrobial activity against Staphylococcus aureus RN4220 harboring tetracycline-regulable expression vector pAJ96 expressing Staphylococcus saprophyticus GyrB K140R mutant gene after 24 hrs by agar dilution method. Conditions: RN4220, 24 h.
Assay [6] relates to Staphylococcus aureus. The assay is described as follows: Antimicrobial activity against Staphylococcus aureus RN4220 after 24 hrs by agar dilution method. Conditions: RN4220, 24 h.
Assay [7] relates to Staphylococcus aureus. The experiment in a line: Antimicrobial activity against Staphylococcus aureus RN4220 harboring tetracycline-regulable expression vector pAJ96 expressing Staphylococcus saprophyticus GyrB gene after 24 hrs by agar dilution method. The following applies: RN4220, 24 h.
The test system of assay [8] is Staphylococcus aureus. The experiment in a line: Antimicrobial activity against Staphylococcus aureus RN4220 harboring tetracycline-regulable expression vector pAJ96 expressing Staphylococcus aureus GyrB gene after 24 hrs by agar dilution method. The following applies: RN4220, 24 h.
For assay [9], the system named is Staphylococcus aureus. The experiment in a line: Antimicrobial activity against Staphylococcus aureus RN4220 harboring tetracycline-regulable expression vector pAJ96 expressing Staphylococcus saprophyticus GyrB G85D mutant gene after 24 hrs by agar dilution method. The following applies: RN4220, 24 h.
The test system of assay [10] is Staphylococcus aureus. The assay is described as follows: Antimicrobial activity against Staphylococcus aureus RN4220 harboring tetracycline-regulable expression vector pAJ96 expressing Staphylococcus saprophyticus GyrB G85D, K140R mutant gene after 24 hrs by agar dilution method. The following applies: RN4220, 24 h.
Assay [11] in a line: Ratio of MIC for Staphylococcus aureus RN4220 harboring tetracycline-regulable expression vector pAJ96 expressing Staphylococcus saprophyticus GyrB gene to MIC for Staphylococcus aureus SH1000.

For the compound `CO[C@@H]1[C@@H](OC(N)=O)[C@@H](O)[C@H](Oc2ccc3c(O)c(NC(=O)c4ccc(O)c(CC=C(C)C)c4)c(=O)oc3c2C)OC1(C)C` [NOVOBIOCIN], the MIC in the assay with Staphylococcus aureus [1] stood at 0.125 µg/mL (≈ 0.204 µM); with Staphylococcus aureus [3] it was 0.125 µg/mL (≈ 0.204 µM); in assay [4] it was 16 µg/mL (≈ 26.1 µM); against Staphylococcus aureus [5], 2 µg/mL (≈ 3.26 µM); against Staphylococcus aureus [6] it was 0.125 µg/mL (≈ 0.204 µM); in the assay with Staphylococcus aureus [7], 8 µg/mL (≈ 13.1 µM). Besides, the MIC in the assay with Staphylococcus aureus [8] is 0.125 µg/mL (≈ 0.204 µM); against Staphylococcus aureus [9], 1 µg/mL (≈ 1.63 µM); with Staphylococcus aureus [10], 0.125 µg/mL (≈ 0.204 µM). The Ratio in assay [2] and in assay [11] was 64 throughout.
